Legend:
Assay type in all cases: functional, organism-based
[1] = test system: Plasmodium falciparum; experiment: Antiplasmodial activity against chloroquine-sensitive Plasmodium falciparum D10
[2] = test system: Plasmodium falciparum; experiment: Antiplasmodial activity against chloroquine-resistant Plasmodium falciparum W2
[3] = test system: Plasmodium falciparum; experiment: Antiplasmodial activity against chloroquine-sensitive Plasmodium falciparum 3D7
[4] = test system: Plasmodium falciparum; experiment: Antiplasmodial activity against chloroquine-resistant Plasmodium falciparum K1

| Structure (SMILES) | IC50 [1] [µM] | IC50 [2] [µM] | IC50 [3] [µM] | IC50 [4] [µM] |
| --- | --- | --- | --- | --- |
| CCN(CC)CCCC(C)NC1CC=Nc2cc(Cl)ccc21 (stereo not drawn) | 22 | 280 | 10 | 260 |
| Clc1ccc2/c(=N/CCCN3CCN(CCCNc4nc5ccccc5[nH]4)CC3)cc[nH]c2c1 | 407 | 535 |  |  |
| CS(=O)(=O)OC(c1ccc(CNCCCN2CCN(CCC/N=c3\cc[nH]c4cc(Cl)ccc34)CC2)cc1)c1cccc(Cl)c1 (stereo not drawn) | 110 | 98 | 7.8 | 447 |
| OC(c1ccc(CNCCCN2CCN(CCC/N=c3\cc[nH]c4cc(Cl)ccc34)CC2)cc1)c1cccc(Cl)c1 (stereo not drawn) | 145 | 269 | 28 | 135 |
| O=C(NCCCN1CCN(CCC/N=c2\cc[nH]c3cc(Cl)ccc23)CC1)C(c1cccc(Cl)c1)n1ccnc1 (stereo not drawn) | 221 | 540 | 40 | 200 |
| O=C(c1ccc(CNCCCN2CCN(CCC/N=c3\cc[nH]c4cc(Cl)ccc34)CC2)cc1)c1cccc(Cl)c1 | 26 | 33 | 1.6 | 16 |
| Clc1ccc2/c(=N/CCCN3CCN(CCCNCC4N=CC=N4)CC3)cc[nH]c2c1 | 1610 | 1440 |  |  |
| Clc1ccc2/c(=N/CCCN3CCN(CCCNCc4ccc(CN5CCCC5)cc4)CC3)cc[nH]c2c1 | 260 | 207 |  |  |
| Clc1cccc(C(NCCCN2CCN(CCC/N=c3\cc[nH]c4cc(Cl)ccc34)CC2)c2ccc(CN3CCCC3)cc2)c1 (stereo not drawn) | 663 | 495 |  |  |

Reference: ChEMBL document CHEMBL1148880, “Development of piperazine-tethered heterodimers as potent antimalarials against chloroquine-resistant P. falciparum strains. Synthesis and molecular modeling” (Bioorg Med Chem Lett, 2007)
